Results on 12 molecules are retold here after ChEMBL document CHEMBL1150159, “Semisynthetic analogues of the microtubule-stabilizing agent discodermolide: preparation and biological activity” (J Nat Prod, 2002).

The subject of one assay is A549. Nature of the assay: Cytotoxicity against human A549 cells. Format: functional, cell-based.
A further assay deals with P388. Nature of the assay: Cytotoxicity against mouse P388 cells. Format: functional, cell-based.

SMILES strings stand for the structures.

Turning to `C=C/C=C\[C@H](C)[C@H](OC(N)=O)[C@@H](C)[C@H](O)[C@@H](C)C/C(C)=C\[C@H](C)[C@@H](O)[C@@H](C)/C=C\[C@@H](O)C[C@@H]1OC(=O)C(C)=C[C@H]1C`, the IC50 was 21.7 nM in the assay with A549 and 33.6 nM in the assay with P388.
`CCCC[C@H](C)[C@H](OC(N)=O)[C@@H](C)[C@H](OC(C)=O)[C@@H](C)C/C(C)=C\[C@H](C)[C@@H](OC(C)=O)[C@@H](C)CCCC[C@@H]1OC(=O)[C@H](C)[C@@H](OC(C)=O)[C@H]1C` yielded a half-maximal inhibitory concentration (IC50) in the assay with P388 greater than 7050 nM.
`C=C/C=C\[C@H](C)[C@H](OC(N)=O)[C@@H](C)[C@H](OC(C)=O)[C@@H](C)C/C(C)=C\[C@H](C)[C@@H](OC(C)=O)[C@@H](C)/C=C\[C@@H](O)C[C@@H]1OC(=O)C(C)=C[C@H]1C`: the IC50 in the assay on A549 and in the assay on P388 was greater than 7590 nM throughout.
As to `CCCC[C@H](C)[C@H](OC(N)=O)[C@@H](C)[C@H](O)[C@@H](C)C/C(C)=C\[C@H](C)[C@@H](O)[C@@H](C)CCCC[C@@H]1OC(=O)[C@H](C)[C@@H](O)[C@H]1C`, the 50% inhibitory concentration (IC50) in the assay on A549 is 377 nM; in the assay on P388, 309 nM.
The corresponding values for `CCCC[C@H](C)[C@H](OC(N)=O)[C@@H](C)[C@H](O)[C@@H](C)C/C(C)=C\[C@H](C)[C@@H](O)[C@@H](C)/C=C\[C@@H](O)C[C@@H]1OC(=O)[C@H](C)[C@@H](O)[C@H]1C` are 8.4 nM and 10 nM.
The corresponding values for `C=C/C=C\[C@H](C)[C@H](OC(N)=O)[C@@H](C)[C@H](OC(C)=O)[C@@H](C)C/C(C)=C\[C@H](C)[C@@H](OC(C)=O)[C@@H](C)/C=C\[C@H](C[C@@H]1OC(=O)C(C)=C[C@H]1C)OC(C)=O` are greater than 7130 nM and 7080 nM.
With `C=C/C=C\[C@H](C)[C@H](OC(N)=O)[C@@H](C)[C@H](OC(C)=O)[C@@H](C)C/C(C)=C\[C@H](C)[C@@H](O)[C@@H](C)/C=C\[C@@H](O)C[C@@H]1OC(=O)C(C)=C[C@H]1C`, the IC50 with A549 and in the assay with P388 was greater than 8100 nM each time.
`CCCC[C@H](C)[C@H](OC(N)=O)[C@@H](C)[C@H](O)[C@@H](C)CC(C)C[C@H](C)[C@@H](O)[C@@H](C)CC[C@@H](O)C[C@@H]1OC(=O)[C@H](C)[C@@H](O)[C@H]1C` (stereo partly drawn): the concentration for half-maximal inhibition (IC50) in the assay with A549 and in the assay with P388 was greater than 8290 nM in each case.
Turning to `CCCC[C@H](C)[C@H](OC(N)=O)[C@@H](C)[C@H](O)[C@@H](C)C/C(C)=C\[C@H](C)[C@@H](O)[C@@H](C)CC[C@@H](O)C[C@@H]1OC(=O)[C@H](C)[C@@H](O)[C@H]1C`, the 50% inhibitory concentration (IC50) is 67.7 nM in the assay with A549 and 33.8 nM in the assay with P388.
In the case of `C=C/C=C\[C@H](C)[C@H](OC(N)=O)[C@@H](C)[C@H](O)[C@@H](C)C/C(C)=C\[C@H](C)[C@H]1OC(=O)C=C[C@@H]1C`, the IC50 in the assay with A549 worked out at 6770 nM; with P388, 3690 nM.
As to `C=C/C=C\[C@H](C)[C@H](O)[C@@H](C)[C@H](O)[C@@H](C)C/C(C)=C\[C@H](C)[C@H]1OC(=O)C=C[C@@H]1C`, the IC50 with A549 and in the assay on P388 was greater than 12800 nM throughout.
Regarding `C=C/C=C\[C@H](C)[C@H](OC(N)=O)[C@@H](C)[C@H](O)[C@@H](C)C/C(C)=C\[C@H](C)[C@@H](OC(C)=O)[C@@H](C)/C=C\[C@@H](O)C[C@@H]1OC(=O)C(C)=C[C@H]1C`, the IC50 was determined as 3130 nM with A549 and 519 nM with P388.

One may read the IC50 as the concentration at which inhibition is half-maximal.
